Assays:
[1] = method code SF-GLC,AS, from DOI: 10.2134/jeq1981.00472425001000030028x
[2] = method code SF, from DOI: 10.1016/0006-291x(88)90214-8; settings: pH 7.4
[3] = method code SF, from Zhuang, J.; Mo, H.; An, F.; Yang, K. (1993). Determination of the water solubility and n-octanol/water partition coefficient of pesticide N-(2,4-dimethylphenyl)-N'-methylamidine. Huanjing Huaxue, …
[4] = method code SF-GLC, from DOI: 10.1016/j.chemosphere.2005.05.003, PMID: 15967478
[5] = method code SF-AS, from DOI: 10.1016/j.jct.2016.12.034; settings: pH 7.4
[6] = method code SF-GLC, from DOI: 10.1021/je970069v
[7] = method code SF-RC, from DOI: 10.1002/jlcr.2580210110; settings: pH 7.4
[8] = method code SF-RC, from DOI: 10.1016/j.nucmedbio.2011.07.009, PMID: 21958846; settings: pH 7.4
[9] = pH 9.2
[10] = not given; remark: listed apart in the source
[11] = method code SF, from DOI: 10.1016/0378-5173(87)90234-1; settings: pH 4.0
[12] = method code SF-AS, from DOI: 10.1021/jm00154a021, PMID: 3959031; settings: pH 9.0
[13] = method code SF-AS, from DOI: 10.1021/jm00047a013, PMID: 7932583
[14] = method code SF-RC, from DOI: 10.1182/blood.v76.11.2389.bloodjournal76112389, PMID: 2257308; settings: pH 7.4
[15] = method code SF-AS, from DOI: 10.1016/0045-6535(95)00267-c
[16] = method code SF, from DOI: 10.1093/jnci/60.2.345, PMID: 621753
[17] = not given; remark: listed apart in the source
[18] = method code SF-RC, from DOI: 10.1016/j.nucmedbio.2007.06.005, PMID: 17707813; settings: pH 7.4
[19] = method code SF-AS, from Dai, Y.; Jiang, J.; Wang, Z.; Xue, Q. (2007). Experimental and QPSR studies on octanol-water partition coefficient of substituted anilines. J. Struct. Chem, 26(12)1449-1454.
[20] = method code SF-AS, from DOI: 10.1021/jm010817i, PMID: 11806714; settings: pH 7.4
[21] = method code SF, from DOI: 10.1016/s0021-9673(01)84246-1
[22] = method code SF-AS, from DOI: 10.1016/s0021-9673(01)87148-x, PMID: 1744207; settings: pH 3.4
[23] = not given; remark: listed apart in the source
[24] = method code SF-AS, from DOI: 10.1016/s0045-6535(00)00181-8, PMID: 11272912
[25] = method code SF-AS, from DOI: 10.1002/jps.2600711105; settings: pH 7.4
[26] = method code SF-AS, from DOI: 10.1016/0005-2744(69)90103-x, PMID: 4387594
[27] = method code SF-AS, from PMID: 6692390; settings: pH 4.0
[28] = not given; remark: listed apart in the source
[29] = method code SF-GLC, from DOI: 10.1016/0045-6535(95)00311-u
[30] = method code SF-AS, from DOI: 10.2116/analsci.13.897; settings: pH 2.0
[31] = method code SF-AS, from DOI: 10.1021/jm00162a004, PMID: 3023612
[32] = method code SF, from Ganellin, C. R., & Durant, G. J. (1981). Histamine H2-receptor agonists and antagonists. Burgers Medicinal Chemistry, 3, 487-552.; settings: pH 9.2
[33] = method code SF-HPLC, from DOI: 10.1002/hlca.19880710534; settings: pH 7.4
[34] = method code SF-AS, from DOI: 10.1021/jm00128a017, PMID: 2754702; settings: pH 7.4
[35] = method code SF-AS, from DOI: 10.1002/jps.2600650731; settings: pH 11.5
[36] = method code SF-AS, from DOI: 10.1139/y89-042, PMID: 2547502; settings: pH 7.4
[37] = method code SF-HPLC, from Blakemore, C.; Brown, H.; Durant, J.; Emmett, C.; Ganellin, R.; Parsons, E.; Rasmussen, C. (1980). SK&F 92994: a new histamine H2-receptor antagonist. COMMUNICATIONS: Part II. Br. J. Pharmacol., …
[38] = not given; remark: listed apart in the source
[39] = method code SF-AS, from DOI: 10.1111/j.2042-7158.1980.tb13082.x, PMID: 6110743
[40] = method code SF-RC, from Audran, M.; Chanal, J.; Marignan, R.; Cousse, H. (1984). Correlations between structure and pharmacokinetic parameters in a series of cresotinamides. International Journal of Pharmaceutics, …; settings: pH 1.0
[41] = method code SF-HPLC, from DOI: 10.1016/0378-5173(88)90220-7; settings: pH 7.4
[42] = not given; remark: listed apart in the source
[43] = method code SF-HPLC, from DOI: 10.1021/jm00109a018, PMID: 2033591; settings: pH 7.0
[44] = not given; remark: listed apart in the source
[45] = method code G-HPLC, from DOI: 10.1016/s0021-9673(01)94303-1
[46] = method code SF-RC, from DOI: 10.1021/jm070791g.s001, PMID: 17960926

CCN(CC)c1nc(Cl)nc(NC(C)C)n1 gave a logP [1] of 3.94.
Work on Cc1cn([C@H]2CC[C@@H](CO)O2)c(=O)[nH]c1=O yielded a logD [2] of -0.7.
For CNC=Nc1ccc(C)cc1C, the logP [3] was 2.92.
In the case of CC1=CCC(C(C)C)C=C1 (configuration not stated), the logP [4] is reported as 4.58.
With CC(=O)Nc1ccc(C=NNC(N)=S)cc1 the logD [5] was 1.7.
Work on Cc1ccc(C(C)C)c(Cl)c1Cl yielded a logP [6] of 5.5.
In the case of C1COC(NC(C2CC2)C2CC2)=N1, the logP is reported as 1.63.
With C1C2CC3CC1CC(C2)C3 the logD [7] was 5.2.
Cc1c(CC(CO)CF)n(C)c(=O)[nH]c1=O (configuration not stated) showed a logD [8] of -0.56.
Compound CN(C)CNC(=O)c1ccccc1 has a logD [9] of 0.85.
With Cc1cnc2n(c1=O)CCCC2C (configuration not stated) the logP [10] was 0.69.
In the case of O=C(c1ccccc1)n1c(=O)[nH]cc(F)c1=O, the logD [11] is reported as 0.8.
For CN1CCN(CCn2cncc2[N+](=O)[O-])CC1, the logD [12] was -0.2.
Cc1cn([C@H]2C[C@H](F)[C@@H](CO)O2)c(=O)[nH]c1=O showed a logP [13] of -0.3.
CCc1c(O)c(=O)ccn1CCOC showed a logD [14] of -0.08.
CC(C)(C#N)Nc1nc(Cl)nc(NC2CC2)n1 showed a logP [15] of 1.99.
For O=NN(CCCl)C(=O)NCCCCNC(=O)N(CCCl)N=O, the logP [16] was 0.9.
For Cc1ccc(C(C)C)cc1, the logP [17] was 4.14.
In the case of Nc1nc(F)c2ncn(CCC(CO)CO)c2n1, the logD [18] is reported as -0.52.
In the case of CCN(CC)c1ccccc1, the logP [19] is reported as 3.11.
For CC(=O)NCc1c(O)c(=O)cc(C)n1C, the logD [20] was -0.82.
With Nc1nc2c(ncn2[C@@H]2O[C@H](CO)[C@@H](O)[C@H]2O)c(=O)[nH]1 the logP [21] was -1.85.
C/C(=C\c1ccccc1)C(=O)O gave a logD [22] of 2.58.
CC1(C)CC(C(=O)O)CC(C)(C)N1O showed a logP [23] of 1.25.
In the case of COc1cc(C=O)c(OC)c(OC)c1, the logP [24] is reported as 1.91.
In the case of COCC(O)Cn1c([N+](=O)[O-])nc(C(C)=O)c1C (configuration not stated), the logD [25] is reported as 0.03.
CCCCNc1ccccc1 showed a logP [26] of 3.58.
CC(=O)c1ccc(NC(=O)N(C)N=O)cc1 showed a logD [27] of 0.26.
CC(C)N1C(=O)c2ccccc2NS1(=O)=O gave a logP [28] of 1.95.
For CCCCCCCCCC(Cl)(Cl)Cl, the logP [29] was 5.85.
With CCC(C(=O)O)c1ccccc1 (configuration not stated) the logD [30] was 2.47.
Work on CCCC1(CCC)CCC=[N+]1[O-] yielded a logP [31] of 0.69.
Compound CNC(=S)NCCCCc1nc[nH]c1C has a logD [32] of 0.85.
Compound C=CCC1(CC(C)O)C(=O)NC(=O)NC1=O (configuration not stated) has a logD [33] of -0.01.
With Nc1nc(N)c2ncn([C@H]3C=C[C@@H](CO)O3)c2n1 the logD [34] was -0.48.
CC/N=C(N)/N=C(\N)Nc1ccc(Cl)cc1 showed a logD [35] of 2.14.
Nc1ncnc2c1ncn2[C@@H]1O[C@@H]2COP(=O)(O)O[C@H]2[C@H]1O gave a logD [36] of -2.96.
In the case of COC(=O)c1ccc(CN(C)N=O)cc1, the logP [37] is reported as 1.21.
Work on CC(C)c1ccc(CO)cc1 yielded a logP [38] of 2.49.
CCCCOc1cccc(O)c1 gave a logP [39] of 3.03.
With CCNC(=O)c1cc(Cl)cc(C)c1O the logD [40] was 3.55.
CC(=O)N(C)S(=O)(=O)c1ccc(C)cc1 showed a logD [41] of 1.73.
CCC(C)C1(CC)C(=O)NC(=O)NC1=O (configuration not stated) gave a logP [42] of 1.58.
N=c1c2ncn([C@@H]3O[C@H](CO)C[C@@H]3F)c2ncn1O showed a logD [43] of -1.38.
For CNC(=O)Oc1cc(C)c(C)cc1Cl, the logP [44] was 2.3.
Work on CCCCc1ccccc1 yielded a logP [45] of 4.29.
With O=c1[nH]c(=O)n([C@H]2C=C[C@@H](CO)C2)cc1I the logP [46] was 0.29.
